Assay results as given in article PMC7926793, “Synthesis and Biological Evaluation of 1-(Diarylmethyl)-1H-1,2,4-triazoles and 1-(Diarylmethyl)-1H-imidazoles as a Novel Class of Anti-Mitotic Agent for Activity in Breast Cancer” (Pharmaceuticals, 2021).
“And” between values parts separate entries of the source, which are not always exact repeats. Equal values may be shown once.

Experiments:
NCI-H460 = assay: NCI 60 cell line screen (Non-Small Cell Lung Cancer); assay type: cell-based, human; conditions: NCI-H460, single dose 10 µM
T-47D = assay: NCI 60 cell line screen (Breast Cancer); assay type: cell-based, human; conditions: single dose 10 µM
NCI/ADR-RES = assay: NCI 60 cell line screen (Ovarian Cancer); assay type: cell-based, human; conditions: single dose 10 µM
TK-10 = assay: NCI 60 cell line screen (Renal Cancer); assay type: cell-based, human; conditions: TK-10, single dose 10 µM
NCI-H23 = assay: NCI 60 cell line screen (Non-Small Cell Lung Cancer); assay type: cell-based, human; conditions: NCI-H23, single dose 10 µM
SNB-75 = assay: NCI 60 cell line screen (CNS Cancer); assay type: cell-based, human; conditions: SNB-75, single dose 10 µM
OVCAR-3 = assay: NCI 60 cell line screen (Ovarian Cancer); assay type: cell-based, human; conditions: OVCAR-3, single dose 10 µM
U251 (AC in Table 3) = assay: NCI 60 cell line screen (CNS Cancer); assay type: cell-based, human; conditions: U251, single dose 10 µM
OVCAR-4 = assay: NCI 60 cell line screen (Ovarian Cancer); assay type: cell-based, human; conditions: OVCAR-4, single dose 10 µM
SW-620 = assay: NCI 60 cell line screen (Colon Cancer); assay type: cell-based, human; conditions: SW-620, single dose 10 µM
MALME-3M = assay: NCI 60 cell line screen (Melanoma); assay type: cell-based, human; conditions: single dose 10 µM
PC-3 = assay: NCI 60 cell line screen (Prostate cancer); assay type: cell-based, human; conditions: PC-3, single dose 10 µM
UACC-257 = assay: NCI 60 cell line screen (Melanoma); assay type: cell-based, human; conditions: UACC-257, single dose 10 µM
RXF 393 = assay: NCI 60 cell line screen (Renal Cancer); assay type: cell-based, human; conditions: RXF 393, single dose 10 µM
786-0 = assay: NCI 60 cell line screen (Renal Cancer); assay type: cell-based, human; conditions: 786-0, single dose 10 µM
HOP-62 = assay: NCI 60 cell line screen (Non-Small Cell Lung Cancer); assay type: cell-based, human; conditions: HOP-62, single dose 10 µM
BT-549 = assay: NCI 60 cell line screen (Breast Cancer); assay type: cell-based, human; conditions: BT-549, single dose 10 µM
SNB-19 = assay: NCI 60 cell line screen (CNS Cancer); assay type: cell-based, human; conditions: SNB-19, single dose 10 µM
NCI 60 cell line panel = assay: NCI 60 cell line screen, panel means; assay type: cell-based, human; conditions: for Mean Growth percentage: 60 cell line panel, single dose 10 µM; for mean growth: 10 μM
RPMI-8226 = assay: NCI 60 cell line screen (Leukemia); assay type: cell-based, human; conditions: RPMI-8226, single dose 10 µM
HCT-2998 = assay: NCI 60 cell line screen (Colon Cancer); assay type: cell-based, human; conditions: HCT-2998, single dose 10 µM
KM12 = assay: NCI 60 cell line screen (Colon Cancer); assay type: cell-based, human; conditions: KM12, single dose 10 µM
HCT-116 = assay: NCI 60 cell line screen (Colon Cancer); assay type: cell-based, human; conditions: HCT-116, single dose 10 µM
CAKI-1 = assay: NCI 60 cell line screen (Renal Cancer); assay type: cell-based, human; conditions: CAKI-1, single dose 10 µM
A549/ATCC = assay: NCI 60 cell line screen (Non-Small Cell Lung Cancer); assay type: cell-based, human; conditions: single dose 10 µM
NCI-H552 = assay: as above; assay type: cell-based, human; conditions: NCI-H552, single dose 10 µM
HOP-92 = assay: as above; assay type: cell-based, human; conditions: HOP-92, single dose 10 µM
OVCAR-5 = assay: NCI 60 cell line screen (Ovarian Cancer); assay type: cell-based, human; conditions: OVCAR-5, single dose 10 µM
COLO 205 = assay: NCI 60 cell line screen (Colon Cancer); assay type: cell-based, human; conditions: COLO 205, single dose 10 µM
MDA-MB-435 = assay: NCI 60 cell line screen (Melanoma); assay type: cell-based, human; conditions: MDA-MB-435, single dose 10 µM
CYP1A1 = target: T1, CYP1A1 (Homo sapiens, UniProt P04798); assay: cytochrome P450 assay (DBF fluorescence)
T1 sequence (P04798 1-512): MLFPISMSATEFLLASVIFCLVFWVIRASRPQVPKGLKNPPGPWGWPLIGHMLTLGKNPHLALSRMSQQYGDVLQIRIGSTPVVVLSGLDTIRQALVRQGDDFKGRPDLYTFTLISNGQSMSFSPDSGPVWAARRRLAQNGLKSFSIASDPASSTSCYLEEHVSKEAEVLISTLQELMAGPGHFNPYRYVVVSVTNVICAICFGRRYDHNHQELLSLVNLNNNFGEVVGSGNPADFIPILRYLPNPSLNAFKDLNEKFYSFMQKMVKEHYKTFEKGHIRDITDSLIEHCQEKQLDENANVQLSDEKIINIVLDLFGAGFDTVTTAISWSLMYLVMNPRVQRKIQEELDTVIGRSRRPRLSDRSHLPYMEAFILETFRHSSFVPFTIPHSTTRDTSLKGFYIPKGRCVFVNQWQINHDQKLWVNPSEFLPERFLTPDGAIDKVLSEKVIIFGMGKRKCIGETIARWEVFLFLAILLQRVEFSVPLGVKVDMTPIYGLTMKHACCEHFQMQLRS

[1] = toxicity evaluation, alamarBlue assay; assay type: cell-based, human; conditions: human, MCF-10A cells, 72 h, read-out: percentage of viable cells

For `COc1ccc(C(c2cc(OC)c(OC)c(OC)c2)N2CCCC2)cc1` (stereo not shown) [25g], which Growth percentage (NCI-H460) is on record?
The Growth percentage was 84.31%.

What about the Growth percentage (T-47D) of the same molecule?
Its Growth percentage is 89.77%.

And the Growth percentage (NCI/ADR-RES)?
Its Growth percentage is 69.39%.

And the Growth percentage (TK-10)?
Its Growth percentage is 88.29%.

And the Growth percentage (NCI-H23)?
Its Growth percentage is 85.27%.

What about the Growth percentage (SNB-75) of the same molecule?
The Growth percentage was 84.06%.

And the Growth percentage (OVCAR-3)?
The Growth percentage was 66.63%.

What about the Growth percentage (U251 (AC in Table 3)) of the same molecule?
Its Growth percentage is 77.78%.

What about the Growth percentage (OVCAR-4) of the same molecule?
Its Growth percentage is 101.25%.

And the Growth percentage (SW-620)?
The Growth percentage was 47.76%.

What about the Growth percentage (MALME-3M) of the same molecule?
Its Growth percentage is 85.32%.

And the Growth percentage (PC-3)?
Its Growth percentage is 63.89%.

And the Growth percentage (UACC-257)?
Its Growth percentage is 74.57%.

What about the Growth percentage (RXF 393) of the same molecule?
The Growth percentage was 103.13%.

And the Growth percentage (786-0)?
Its Growth percentage is 93.40%.

And the Growth percentage (HOP-62)?
Its Growth percentage is 79.46%.

And the Growth percentage (BT-549)?
Its Growth percentage is 81.58%.

And the Growth percentage (SNB-19)?
Its Growth percentage is 90.50%.

What about the “Mean Growth percentage” value (NCI 60 cell line panel) of the same molecule?
Its value is 73.14% and 73.1%.

What about the Growth percentage (RPMI-8226) of the same molecule?
Its Growth percentage is 97.42%.

What about the Growth percentage (HCT-2998) of the same molecule?
Its Growth percentage is 89.14%.

And the Growth percentage (KM12)?
Its Growth percentage is 43.91%.

What about the Growth percentage (HCT-116) of the same molecule?
Its Growth percentage is 62.27%.

And the Growth percentage (CAKI-1)?
Its Growth percentage is 77.46%.

And the Growth percentage (A549/ATCC)?
The Growth percentage was 77.65%.

What about the Growth percentage (NCI-H552) of the same molecule?
The Growth percentage was 58.47%.

What about the Growth percentage (HOP-92) of the same molecule?
The Growth percentage was 85.48%.

And the Growth percentage (OVCAR-5)?
Its Growth percentage is 92.64%.

And the Growth percentage (COLO 205)?
Its Growth percentage is 71.23%.

And the Growth percentage (MDA-MB-435)?
The Growth percentage was -21.80%.

Which results are given for `COc1ccc(C(c2cc(OC)c(OC)c(OC)c2)N2CCCCC2)cc1` (stereo not shown) [26b, 1-((4-Methoxyphenyl)(3,4,5-Trimethoxyphenyl)Methyl)Piperidine]?
Growth percentage (NCI-H460): 19.38%; Growth percentage (T-47D): 33.59%; Growth percentage (NCI/ADR-RES): 23.95%; Growth percentage (TK-10): 57.56%; Growth percentage (NCI-H23): 59.28%; Growth percentage (SNB-75): 26.61%; Growth percentage (OVCAR-3): 8.29%; Growth percentage (U251 (AC in Table 3)): 26.12%; Growth percentage (OVCAR-4): 69.25%; Growth percentage (SW-620): 14.47%; Growth percentage (MALME-3M): 55.25%; Growth percentage (PC-3): 25.08%; Growth percentage (UACC-257): 54.88%; Growth percentage (RXF 393): 25.99%; Growth percentage (786-0): 38.84%; Growth percentage (HOP-62): 29.82%; Growth percentage (BT-549): 49.73%; Growth percentage (SNB-19): 30.43%; Mean Growth percentage (NCI 60 cell line panel): 34.17% and 34.2%; mean growth (NCI 60 cell line panel; breast cancer panel): 30.3%; mean growth (NCI 60 cell line panel; leukaemia panel): 23.5%; Growth percentage (RPMI-8226): 41.20%; Growth percentage (HCT-2998): 79.59%; Growth percentage (KM12): 30.23%; Growth percentage (HCT-116): 29.08%; Growth percentage (CAKI-1): 29.22%; Growth percentage (A549/ATCC): 49.14%; Growth percentage (NCI-H552): 19.85%; Growth percentage (HOP-92): 44.15%; Growth percentage (OVCAR-5): 69.57%; Growth percentage (COLO 205): 16.14%; Growth percentage (MDA-MB-435): -21.79%

What does the source list for `COc1ccc(C(c2cc(OC)c(OC)c(OC)c2)N2CCN(Cc3ccccc3)CC2)cc1` (stereo not shown) [27d]?
Growth percentage (NCI-H460): 74.38%; Growth percentage (T-47D): 75.11%; Growth percentage (NCI/ADR-RES): 61.59%; Growth percentage (TK-10): 84.76%; Growth percentage (NCI-H23): 88.53%; Growth percentage (SNB-75): 92.44%; Growth percentage (OVCAR-3): 68.96%; Growth percentage (U251 (AC in Table 3)): 62.75%; Growth percentage (OVCAR-4): 97.02%; Growth percentage (SW-620): 43.57%; Growth percentage (MALME-3M): 74.83%; Growth percentage (PC-3): 59.28%; Growth percentage (UACC-257): 84.23%; Growth percentage (RXF 393): 72.30%; Growth percentage (786-0): 82.57%; Growth percentage (HOP-62): 69.72%; Growth percentage (BT-549): 92.41%; Growth percentage (SNB-19): 69.95%; Mean Growth percentage (NCI 60 cell line panel): 65.45% and 65.5%; Growth percentage (RPMI-8226): 84.15%; Growth percentage (HCT-2998): 91.92%; Growth percentage (KM12): 40.62%; Growth percentage (HCT-116): 56.66%; Growth percentage (CAKI-1): 66.73%; Growth percentage (A549/ATCC): 78.38%; Growth percentage (NCI-H552): 52.38%; Growth percentage (HOP-92): 70.59%; Growth percentage (OVCAR-5): 84.69%; Growth percentage (COLO 205): 61.78%; Growth percentage (MDA-MB-435): -32.20%

With `COc1ccc(C(c2cc(OC)c(OC)c(OC)c2)n2nccn2)cc1O` (stereo not shown) [compound 24] as the molecule, how does the IC50 (CYP1A1; IC50 CYP1A1) read?
The IC50 was greater than 53.8 µM.

And the inhibition at 25 min, 20 µg/mL (CYP1A1; human, recombinant CYP1A1, pH 7.4, probe dibenzylfluorescein (DBF), 2.0 μM)?
The inhibition at 25 min, 20 µg/mL was 12.8%.

What about the viability at 72 h, 0.1 µM ([1]; 0.1 μM) of the same molecule?
Its viability at 72 h, 0.1 µM is 96%.

What about the viability at 72 h, 1 µM ([1]; 1 μM) of the same molecule?
The viability at 72 h, 1 µM was 71%.

What about the viability at 72 h, 10 µM ([1]; 10 μM) of the same molecule?
Its viability at 72 h, 10 µM is 61%.
